Laboratory results from patent US20250049776A1, “AUTOPHAGY INDUCING COMPOUNDS AND USES THEREOF, IN PARTICULAR FOR A SYSTEMIC TREATMENT OF DISEASES AND CONDITIONS” (Samsara Therapeutics Inc., priority 2021, published 2025).

Columns and labels:
Assay type in all cases: cell-based
[1] = tested on: Human osteosarcoma U20S cells; assay: Assay to measure lysosome and autolysosome formation (acidic vesicle formation, LysoView/LysoTracker staining); conditions: for activation at 0.8 µM: Homo sapiens, U2OS cells, concentration of 0.8 μM, read-out: Activity (percentage increase in acidic vesicle formation over the DMSO-treated control), Table 2; for increase in acidic vesicle formation: U20S cells, relative to DMSO-treated control (10 μM)
In short: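 U2OS cells treated with compounds in DMSO for 24 h, then stained 45 min at 37 °C with 1× LysoView 633 or 50 nM LysoTracker Deep Red, with Hoechst nuclear counterstain. Live-cell fluorescence imaging at 37 °C; acidic vesicle formation judged against DMSO-treated control.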

SH-SY5Y cells = assay: Acidic vesicle formation in SH-SY5Y cells (LysoTracker Deep Red); conditions: 24 hours
Description: This is evidence for significant stimulation of autophagy by this compound under these conditions. A brief description of the procedure is outlined here: • Day 1: Cells were seeded at 15K cells/well in the middle 60 wells of 6×96 well Cellvis imaging plates • Day 2: Media was replaced with 90 μl of DMEM/F12 (+10% FBS/1% P/S) containing NucBlue Live and the cells were treated with 10 μl of compound (10× concentrated) in triplicate for 24 hours. • Day3: Treatment was removed and cells were incubated for 30 minutes with LysoTracker™ Deep Red dye. Cells were washed twice with media and immediately imaged on EVOS M7000 at x20 (6 images per well, 30 minutes imaging time/plate). Images were analysed using Celleste Image analysis software.

[2] = tested on: U2OS cell line stabling expressing RFP-eGFP-hLC3b; assay: Tandem reporter assay (autophagic flux, RFP-only puncta); conditions: Homo sapiens, RFP-only puncta as percentage of DMSO-treated control, 24 hours; for activity at 1 µM: read-out: Autolysosome % DMSO activity (compound concentration of 1 μM); for activity at 10 µM: read-out: Autolysosome % DMSO activity (compound concentration of 10 μM)
Description: Selected compounds of this invention were also assessed for their ability to stimulate autophagy using a U20S cell line stabling expressing RFP-eGFP-hLC3b (a tandem reporter cell line). During the process of autophagy, the cargo to be degraded is first enveloped by organelles called autophagosomes. These autophagosomes then fuse with lysosomes, causing them to become acidified and their digestive enzymes to become activated. The term “autophagic flux” is used to represent the dynamic process of autophagy: autophagic flux refers to the whole process of autophagy, including autophagosome formation, maturation, fusion with lysosomes, subsequent breakdown and the release of macromolecules back into the cytosol (Zhang X J, Chen S, Huang K X, Le W D. Why should autophagic flux be assessed? Acta Pharmacol Sin. 2013 May; 34(5): 595-9. doi: 10.1038/aps.2012.184. Epub 2013 Mar. 11). Compounds that stimulate autophagic flux stimulate the dynamic process of autophagy (the whole process of autophagy).
LC3b is a protein found in the membrane of autophagosomes which has been used to generate genetic reporters of autophagy in cells. In these systems a tandem fusion of LC3b is engineered with two fluorescent proteins of different wavelengths: one which is acid sensitive (for example eGFP, which fluoresces green) and the other which is acid insensitive (for example RFP, which fluoresces red). Cells expressing RFP-eGFP-hLC3b can be examined using fluorescent microscopy: the autophagosomes present will fluoresce in both channels (either yellow in an overlay of both channels or puncta that are present in both the individual red and green channels) but the autolysosomes present will fluoresce in the RFP (red) channel only. Using a fluorescent microscope, the number of autophagosomes and autolysosomes can be counted, allowing for the monitoring of both the induction of autophagy (total puncta count) and the rate of autophagic flux (ratio of red-only to red-and-green puncta). The influence of small molecules on autophagy induction and flux can be assessed using this system by comparison to a non-treated control.
Representative Procedure: Human osteosarcoma U2OS cells stably expressing RFP-eGFP-hLC3b were seeded (10,000 cells/well) into a 96-well glass-bottom plate (Cell Carrier Ultra, Perkin Elmer) in DMEM Glutamax media (Gibco) supplemented with 10% Fetal Bovine Serum (FBS) and antibiotics (100 u/ml penicillin, 100 μg/ml streptomycin, Invitrogen), then incubated overnight in a humified atmosphere at 37° C. and 5% CO2. The cells were then treated with the compounds of interest, dissolved in DMSO, in a duplicated 5- or 10-point dose-response. 8 wells were treated with an equivalent volume of DMSO, 4 with 0.3 μM torin-1 as a positive control (MCE) and 4 wells with 0.4 μM torin-1 plus 0.2 μM bafilomycin (MCE) as a control for flux inhibition. The cells were returned to the incubator and the treatment continued for 24 hours. After treatment, the media was aspirated off and the cells fixed with a solution of 4% formaldehyde+1% glutaraldehyde (Sigma) in dPBS (plus magnesium and calcium, Gibco).
Fixation was allowed to proceed for 15 minutes at room temperature then the fixative solution discarded and replaced with PBS (Gibco) plus Hoescht 33342 ([…], Sigma). After 30 minutes the plates were imaged on an Opera Phenix confocal microscope (Perkin-Elmer) using a 40× water objective, collecting using DAPI, mCherry and GFP channels. Cells were detected based upon the staining of their nuclei with DAPI using the Harmony image analysis software (Perkin-Elmer) and the number of autophagosomes (GFP and RFP puncta) and autolysosomes (RFP only puncta) per cell were counted using the spot picking function within the software.

CC(C)N(C(=O)c1ccc(-c2cnn(-c3ccccc3)c2)[nH]1)[C@H]1CCNC1 [Compound 314, 5-(1-phenyl-1H-pyrazol-4-yl)-N-(propan-2-yl)-N-[(3S)-pyrrolidin-3-yl]-1H-pyrrole-2-carboxamide]
activation at 0.8 µM [1]: > 100%
Fold change at compound concentration of 0.8 μM (acidic vesicle formation relative to DMSO-treated control) (SH-SY5Y cells): 2.0
Fold change at compound concentration of 10 μM (acidic vesicle formation relative to DMSO-treated control) (SH-SY5Y cells): 14.3

CC(C)N(C(=O)c1csc(-c2cnn(-c3ccccc3)c2)n1)C1CC2(CNC2)C1 [Compound 319, N-{2-azaspiro[3.3]heptan-6-yl}-2-(1-phenyl-1H-pyrazol-4-yl)-N-(propan-2-yl)-1,3-thiazole-4-carboxamide]
activation at 0.8 µM [1]: 30 to 50%
Fold change at compound concentration of 0.8 μM (acidic vesicle formation relative to DMSO-treated control) (SH-SY5Y cells): 2.4
Fold change at compound concentration of 10 μM (acidic vesicle formation relative to DMSO-treated control) (SH-SY5Y cells): 2.7

CC(C)N(C(=O)c1csc(-c2cnn(-c3ccccc3)c2)n1)[C@H]1CCNC1 [Compound 311, 2-(1-phenyl-1H-pyrazol-4-yl)-N-(propan-2-yl)-N-[(3S)-pyrrolidin-3-yl]-1,3-thiazole-4-carboxamide]
activation at 0.8 µM [1]: 50 to 100%
Fold change at compound concentration of 0.8 μM (acidic vesicle formation relative to DMSO-treated control) (SH-SY5Y cells): 2.3
Fold change at compound concentration of 10 μM (acidic vesicle formation relative to DMSO-treated control) (SH-SY5Y cells): 3.5

CC(C)N(C(=O)c1csc(-c2cnn(-c3ccccc3)c2)n1)C1C[C@H]2CNC[C@H]2C1 (stereo partly drawn) [Compound 320, N-[(3aR,6aS)-octahydrocyclopenta[c]pyrrol-5-yl]-2-(1-phenyl-1H-pyrazol-4-yl)-N-(propan-2-yl)-1,3-thiazole-4-carboxamide]
increase in acidic vesicle formation [1]: only a slight increase
Fold change at compound concentration of 0.8 μM (acidic vesicle formation relative to DMSO-treated control) (SH-SY5Y cells): 1.9
Fold change at compound concentration of 10 μM (acidic vesicle formation relative to DMSO-treated control) (SH-SY5Y cells): 3.3

CC(C)N(C(=O)c1ccc(-c2cnn(-c3ccc(F)cc3)c2)[nH]1)C1CCNCC1 [Compound 310, 5-[1-(4-fluorophenyl)-1H-pyrazol-4-yl]-N-(piperidin-4-yl)-N-(propan-2-yl)-1H-pyrrole-2-carboxamide]
increase in acidic vesicle formation [1]: only a slight increase
Fold change at compound concentration of 0.8 μM (acidic vesicle formation relative to DMSO-treated control) (SH-SY5Y cells): 1.9
Fold change at compound concentration of 10 μM (acidic vesicle formation relative to DMSO-treated control) (SH-SY5Y cells): 4.5

CC(C)N(C(=O)c1ccc(-c2cnn(-c3ccccc3)c2)[nH]1)[C@@H]1CCNC1 [Compound 313, 5-(1-phenyl-1H-pyrazol-4-yl)-N-(propan-2-yl)-N-[(3R)-pyrrolidin-3-yl]-1H-pyrrole-2-carboxamide]
activation at 0.8 µM [1]: > 100%
Fold change at compound concentration of 0.8 μM (acidic vesicle formation relative to DMSO-treated control) (SH-SY5Y cells): 2.0
Fold change at compound concentration of 10 μM (acidic vesicle formation relative to DMSO-treated control) (SH-SY5Y cells): 13.2

CCN(C(=O)c1csc(-c2cnn(-c3ccccc3)n2)n1)[C@H]1CCNC1 [Compound 364, N-ethyl-2-(2-phenyl-2H-1,2,3-triazol-4-yl)-N-[(3S)-pyrrolidin-3-yl]-1,3-thiazole-4-carboxamide]
activity at 1 µM [2]: 166%

CN(C(=O)c1coc(-c2cnn(-c3ccccc3)c2)n1)[C@H]1CCNC1 [Compound 360, N-methyl-2-(1-phenyl-1H-pyrazol-4-yl)-N-[(3S)-pyrrolidin-3-yl]-1,3-oxazole-4-carboxamide]
activity at 1 µM [2]: 113%
activity at 10 µM [2]: 214%

CC(C)N(C(=O)c1csc(-c2cnn(-c3ccccc3OC(F)(F)F)c2)n1)[C@H]1CCNC1 [Compound 396, N-(propan-2-yl)-N-[(3S)-pyrrolidin-3-yl]-2-{1-[2-(trifluoromethoxy)phenyl]-1H-pyrazol-4-yl}-1,3-thiazole-4-carboxamide]
activity at 1 µM [2]: 138%
activity at 10 µM [2]: 78%

CC(C)N(C(=O)c1csc(-c2cnn(C)c2)n1)C1CCNCC1 [Compound 392, 2-(1-methyl-1H-pyrazol-4-yl)-N-(piperidin-4-yl)-N-(propan-2-yl)-1,3-thiazole-4-carboxamide]
activity at 1 µM [2]: 97%
activity at 10 µM [2]: 109%

CC(C)N(C(=O)c1csc(-c2cnn(-c3ccccc3)c2)n1)C1CCNCC1F (stereo not drawn) [Compound 383, N-(3-fluoropiperidin-4-yl)-2-(1-phenyl-1H-pyrazol-4-yl)-N-(propan-2-yl)-1,3-thiazole-4-carboxamide]
activity at 1 µM [2]: 98%
activity at 10 µM [2]: 194%
